Assay results as given in patent publication US10981906B2, “Substituted pyrrolopyridine JAK inhibitors and methods of making and using the same” (ACLARIS THERAPEUTICS, INC., priority 2017, dated 2021).
Where two headings read alike, the source gives them in different places.

Legend:
JAK1 = JAK1 (Homo sapiens (Human), UniProt P23458); experiment: JAK1 enzyme activity assay (Thermo Fisher SelectScreen Z-lyte); type: biochemical; conditions: 1 hour kinase reaction, read-out: JAK1 Inhibition IC50
Description: The inhibitory potency of candidate compounds of JAK1 done at Thermo Fisher Scientific in their Selectscreen using a Z-lyte assay. The 2×JAK1/Tyr 06 mixture is prepared in 50 mM HEPES pH 6.5, 0.01% BRIJ-35, 10 mM MgCl2, 1 mM EGTA, 0.02% NaN3. The final 10 μL of the Kinase Reaction consists of 21.2-91.5 ng JAK1 and 2 μM Tyr 06 in 50 mM HEPES pH 7.0, 0.01% BRIJ-35, 10 mM MgCl2, 1 mM EGTA, 0.01% NaN3. After the 1 hour Kinase Reaction incubation, 5 μL of a 1:128 dilution of Development Reagent is added.
(§1) Background signal is defined in the absence of enzyme and uninhibited signal is defined in the presence of vehicle (2% DMSO) alone. Compounds were evaluated in an 11 point dose-response ranging from […] to 0.34 nM. IC50 values of compounds are determined using a 4 parameter logistical fit of emission ratio as a function of the concentration of compound.

[1] = system: IL-2 stimulated STAT5 phosphorylation on Tyr694 (JAK1/3); experiment: JAK1/3 cellular target modulation: IL-2 stimulated phospho-STAT5 in PBMC; type: cell-based; conditions: IL-2 25 ng/ml, 1 hour compound preincubation, read-out: IL2-STAT5 Inhibition IC50
Source text: (§2) Target modulation was based upon the ability of a compound to inhibit JAK isoform specific phosphorylation of selected substrates. IL-2 stimulated STAT5 phosphorylation on Tyr694 was used to assess JAK1/3 compound selectivity. GM-CSF stimulated STAT5 phosphorylation on Tyr694 was used to assess JAK2 compound selectivity. IFNγ stimulated STAT1 phosphorylation on Tyr701 was used to assess JAK1/2 compound selectivity. For all three assays, human PBMC from frozen stocks were thawed, pelleted, resuspended in complete media (90% RPMI, 10% heat inactivated FBS, 10 mM HEPES, 47 μM 2-ME, pen/strep) and placed in wells of a 96 well V-bottom plate at 200,000 per well in 120 μl complete media. Compounds were added as 15 μl per well of 10× working stock solutions in complete media with 1% DMSO (or medium with 1% DMSO for controls) and placed on a plate shaker in a 37° C. incubator with 5% CO2 for 1 hour with gentle shaking (setting of 3). Stimulation used the addition of soluble cytokines. For the JAK1/3 phospho-STAT5 assay, 15 μl of 10× working stock recombinant human IL-2 was added to a final concentration of 25 ng/ml. For the JAK2 phospho-STAT5 assay, 15 μl of 10× working stock recombinant human GM-CSF was added to a final concentration of 5 ng/ml. For the JAK1/2 phospho-STAT1 assay, 15 μl of 10× working stock of recombinant human IFNγ was added to a final concentration of 10 ng/ml. Plates were then placed back on the plate shaker in the incubator for an additional 5, 5 and 10 minutes respectively upon which the plates were removed from the incubator, sealed with a plate sealer and the cells pelleted at 400×g for 5 minutes. After pelleting, the media was removed by aspiration and the cells were lysed in ELISA specific cell lysis buffer. The levels of phospho-STAT5 were determined using a Phospho (Tyr694)/Total STAT5a,b Whole Cell Lysate kit from Meso Scale Discovery. Levels of phospho-STAT1 were determined using a CST-PathScan Phospho-STAT1 (Tyr701) Sandwich ELISA kit.

[2] = system: IFNγ stimulated STAT1 phosphorylation on Tyr701 (JAK1/2); experiment: JAK1/2 cellular target modulation: IFNγ stimulated phospho-STAT1 in PBMC; type: cell-based; conditions: Homo sapiens, PBMC, IFNγ 10 ng/ml, 1 hour compound preincubation, read-out: Infγ-STAT1 IC50
Source text: as §2

JAK3 (a.a. 781-1124) = JAK3 (a.a. 781-1124) (Homo sapiens (Human), UniProt P52333); experiment: JAK3 enzyme activity assay (SRCtide phosphorylation, Caliper); type: biochemical; conditions: 2.5 nM JAK3, 1 μM SRCtide, 1 uM ATP, 40 minutes; read-out: JAK3 Inhibition IC50
JAK3 (a.a. 781-1124), sequence (P52333 781-1124): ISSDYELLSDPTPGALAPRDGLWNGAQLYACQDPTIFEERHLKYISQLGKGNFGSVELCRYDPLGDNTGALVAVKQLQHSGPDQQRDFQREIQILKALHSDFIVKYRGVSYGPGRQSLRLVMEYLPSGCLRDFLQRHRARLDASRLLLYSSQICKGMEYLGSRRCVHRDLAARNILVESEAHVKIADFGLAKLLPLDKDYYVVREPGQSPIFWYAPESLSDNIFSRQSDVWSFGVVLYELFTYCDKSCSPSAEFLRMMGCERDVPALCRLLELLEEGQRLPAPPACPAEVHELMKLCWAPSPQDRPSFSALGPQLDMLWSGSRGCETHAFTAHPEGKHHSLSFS
Description: The activity of JAK3 (a.a. 781-1124, ThermoFisher) was quantified by measuring the phosphorylation of SRCtide (FAM-GEEPLYWSFPAKKK-NH2). Kinase reactions were run in a 384-well Greiner plate with 2% final DMSO concentration under the buffer conditions of 20 mM HEPES, pH 7.5, 10 mM MgCl2, 0.01% BSA, and 0.0005% Tween-20. The kinase reaction components were 2.5 nM JAK3, 1 μM SRCtide peptide and 1 uM ATP. Examples were tested in dose-response starting at 2 μM (11 concentrations, 3-fold serial dilution, duplicate reactions). The reactions were incubated at room temperature for 40 minutes, then stopped by adding a 1:1 volume of 30 mM EDTA in 20 mM HEPES, pH 7.5 (15 mM EDTA final). After the reaction was stopped, the phosphorylated and unphosphorylated peptides were separated and quantified using a Caliper LC3000/EZ-Reader system and HTS Well Analyzer Software (Caliper, A PerkinElmer Company, Hopkinton, Mass.). GraFit (Erithacus Software Ltd., Horley, U.K.) was used to calculate inhibitor potency by fitting dose-response data to the 4-parameter logistical IC50 equation.
as §1

JAK1, sequence (P23458 whole entry): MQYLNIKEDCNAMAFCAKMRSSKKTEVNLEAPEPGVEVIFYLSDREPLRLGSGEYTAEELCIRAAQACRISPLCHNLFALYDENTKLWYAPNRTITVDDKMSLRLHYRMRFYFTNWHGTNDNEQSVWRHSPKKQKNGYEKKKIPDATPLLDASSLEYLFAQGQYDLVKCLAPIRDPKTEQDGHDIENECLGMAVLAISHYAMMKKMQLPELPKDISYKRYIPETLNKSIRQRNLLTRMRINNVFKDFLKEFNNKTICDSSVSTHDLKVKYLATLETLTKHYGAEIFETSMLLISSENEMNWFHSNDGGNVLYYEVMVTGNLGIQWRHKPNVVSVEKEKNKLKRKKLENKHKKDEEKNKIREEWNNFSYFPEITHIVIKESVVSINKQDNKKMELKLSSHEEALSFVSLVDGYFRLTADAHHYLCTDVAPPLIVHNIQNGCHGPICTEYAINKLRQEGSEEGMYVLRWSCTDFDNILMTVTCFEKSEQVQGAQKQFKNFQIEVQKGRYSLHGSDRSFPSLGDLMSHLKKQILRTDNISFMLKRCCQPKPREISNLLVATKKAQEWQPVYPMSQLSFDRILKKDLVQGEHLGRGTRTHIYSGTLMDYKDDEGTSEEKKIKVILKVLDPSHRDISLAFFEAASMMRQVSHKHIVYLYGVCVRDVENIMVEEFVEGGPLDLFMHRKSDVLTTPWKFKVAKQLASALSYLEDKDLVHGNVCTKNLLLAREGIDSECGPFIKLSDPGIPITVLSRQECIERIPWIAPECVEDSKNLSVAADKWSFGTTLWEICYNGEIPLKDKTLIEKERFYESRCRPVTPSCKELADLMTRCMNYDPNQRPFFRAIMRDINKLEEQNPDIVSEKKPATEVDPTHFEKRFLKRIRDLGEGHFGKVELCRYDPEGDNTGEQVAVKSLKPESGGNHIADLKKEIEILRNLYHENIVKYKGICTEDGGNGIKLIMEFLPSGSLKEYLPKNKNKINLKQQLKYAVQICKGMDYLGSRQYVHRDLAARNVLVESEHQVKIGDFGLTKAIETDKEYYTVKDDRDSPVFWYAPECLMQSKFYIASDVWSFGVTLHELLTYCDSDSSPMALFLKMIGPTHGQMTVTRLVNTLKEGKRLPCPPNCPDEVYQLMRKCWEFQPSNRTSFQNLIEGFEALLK

| SMILES | IC50 (JAK1) [nM] | IC50 ([1]; Homo sapiens, PBMC) [nM] | IC50 [2] [nM] | IC50 (JAK3 (a.a. 781-1124)) [nM] | IC50 ([1]; human PBMC) [nM] |
| --- | --- | --- | --- | --- | --- |
| CCOC(=O)c1cnc2[nH]ccc2c1N[C@H]1CC[C@H](O)C1 (single isomer, unassigned) [Example 75, (trans)-ethyl 4-((3-hydroxycyclopentyl)amino)-1H-pyrrolo[2,3-b]pyridine-5-carboxylate] | 10 to 100 | 100 to 1000 | > 1000 | 10 to 100 |  |
| CCCOC(=O)c1cnc2[nH]ccc2c1N[C@H]1CCC[C@H](CCC#N)C1 (racemic) [Example 140, (rac)-(trans)-propyl 4-((3-(2-cyanoethyl)cyclohexyl)amino)-1H-pyrrolo[2,3-b]pyridine-5-carboxylate] | ≤ 10 | 100 to 1000 | 100 to 1000 | ≤ 10 |  |
| CCOC(=O)c1cnc2[nH]ccc2c1NC1CCC(OCCC#N)C1 (centres unmarked) [Example 113, ethyl 4-((3-(2-cyanoethoxy)cyclopentyl)amino)-1H-pyrrolo[2,3-b]pyridine-5-carboxylate] | 10 to 100 | 100 to 1000 | > 1000 | 10 to 100 |  |
| CCOC(=O)c1cnc2[nH]ccc2c1NC1CCCC(CCC#N)C1 (centres unmarked) [Example 132, ethyl 4-((3-(2-cyanoethyl)cyclohexyl)amino)-1H-pyrrolo[2,3-b]pyridine-5-carboxylate] | ≤ 10 | ≤ 100 | 100 to 1000 | ≤ 10 |  |
| CCOC(=O)c1cnc2[nH]ccc2c1N(C)[C@H]1CC[C@H](OC(=O)CC#N)C1 (single isomer, unassigned) [Example 70, (trans)-ethyl 4-((3-(2-cyanoacetoxy)cyclopentyl)(methyl)amino)-1H-pyrrolo[2,3-b]pyridine-5-carboxylate] | 10 to 100 |  | > 1000 | 100 to 1000 | 100 to 1000 |
| CCOC(=O)c1cnc2[nH]ccc2c1N[C@H]1CCC[C@@H](CCC#N)C1 (racemic) [Example 133, (rac)-(cis)-ethyl 4-((3-(2-cyanoethyl)cyclohexyl)amino)-1H-pyrrolo[2,3-b]pyridine-5-carboxylate] | ≤ 10 | ≤ 100 | 100 to 1000 | ≤ 10 |  |
| CCCOC(=O)c1cnc2[nH]ccc2c1N[C@@H]1CCCN(C(=O)CC#N)C1 [Example 130, propyl (R)-4-((1-(2-cyanoacetyl)piperidin-3-yl)amino)-1H-pyrrolo[2,3-b]pyridine-5-carboxylate] | ≤ 10 | 100 to 1000 | 100 to 1000 | ≤ 10 |  |
| C=CC(=O)N1CCC[C@@H](Nc2c(C(=O)OCC)cnc3[nH]ccc23)C1 [Example 34, ethyl (R)-4-((1-acryloylpiperidin-3-yl)amino)-1H-pyrrolo[2,3-b]pyridine-5-carboxylate] | 100 to 1000 | 100 to 1000 | > 1000 | 100 to 1000 |  |
| CC(C)OC(=O)c1cnc2[nH]ccc2c1N[C@H]1CN(C(=O)CC#N)CC[C@H]1C [Example 124, isopropyl 4-(((3R,4R)-1-(2-cyanoacetyl)-4-methylpiperidin-3-yl)amino)-1H-pyrrolo[2,3-b]pyridine-5-carboxylate] | 10 to 100 | 100 to 1000 | > 1000 | 10 to 100 |  |
| N#CCC(=O)N1CCC[C@@H](Nc2c(C(=O)OCC3CC3)cnc3[nH]ccc23)C1 [Example 145, cyclopropylmethyl (R)-4-((1-(2-cyanoacetyl)piperidin-3-yl)amino)-1H-pyrrolo[2,3-b]pyridine-5-carboxylate] | ≤ 10 | ≤ 100 | 100 to 1000 | 10 to 100 |  |
| CCOC(=O)c1cnc2[nH]ccc2c1N[C@@H]1CCC[C@H](CCC#N)C1 (single isomer, unassigned; enantiomer 2) [Example 136, (cis) ethyl 4-((3-(2-cyanoethyl)cyclohexyl)amino)-1H-pyrrolo[2,3-b]pyridine-5-carboxylate, enantiomer 2] | 10 to 100 | 100 to 1000 | > 1000 | 10 to 100 |  |
